US10508120B2, “TYK2 inhibitors and uses thereof” (Nimbus Lakshmi, Inc., priority 2017, dated 2019)
Like-named read-outs stand apart in the source and are kept apart here.

How the values were obtained:
[1] = target: human TYK2 (JH2domain-pseudokinase) (Homo sapiens (Human), UniProt P29597); assay: TYK2 JH2 Domain Binding Assay (KINOMEscan)
Outline: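 Competition binding of an NFkB-DBD fusion of human TYK2 JH2 (G556–D888), expressed in HEK293 and used as crude extract at <0.1 nM, against immobilized ligand beads; 1 h at room temperature in PBS/Tween/DTT/BSA buffer, 0.9% DMSO.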

Tyk2 kinase domain (DH1) = Tyk2 kinase domain (DH1) (Homo sapiens (Human), UniProt P29597); assay: Tyk2 Radioactive Kinase Assay; type: biochemical; conditions: for inhibition at 10 µM: read-out: Tyk2 JH1% Inhibition @ 10 μM
Outline: (§1)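 Single-point screen: 10 μM test compound, radioactive kinase read-out, percent inhibition reported for each kinase domain.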

JAK2 kinase domain (JH1) = JAK2 kinase domain (JH1) (Homo sapiens (Human), UniProt O60674); assay: JAK2 Radioactive Kinase Assay; type: biochemical; conditions: for inhibition at 10 µM: read-out: JAK2 JH1% Inhibition @ 10 μM
Outline: as §1

[2] = target: Tyk2/JAK2 (heterodimeric complex) (Homo sapiens (Human), UniProt P29597); assay: IL-12 Induced pSTAT4 in Human PBMC; type: cell-based; conditions: 1.7 ng/mL IL-12
Description: The IL-12 Induced pSTAT4 assay evaluates the inhibition of IL-12 induced STAT4 phophorylation mediated by Tyk2/JAK2 (heterodimeric complex).

[3] = target: JAK2/JAK2 homdimeric complex (Homo sapiens (Human), UniProt O60674); assay: GM-CSF Induced pSTAT5 in Human PBMC; type: cell-based; conditions: GM-CSF 5 ng/mL for 20 minutes, pSTAT5 by MSD, read-out: PBMC_GMCSF_pSTAT5 IC50
Sequence of JAK2/JAK2 homdimeric complex (O60674 whole entry): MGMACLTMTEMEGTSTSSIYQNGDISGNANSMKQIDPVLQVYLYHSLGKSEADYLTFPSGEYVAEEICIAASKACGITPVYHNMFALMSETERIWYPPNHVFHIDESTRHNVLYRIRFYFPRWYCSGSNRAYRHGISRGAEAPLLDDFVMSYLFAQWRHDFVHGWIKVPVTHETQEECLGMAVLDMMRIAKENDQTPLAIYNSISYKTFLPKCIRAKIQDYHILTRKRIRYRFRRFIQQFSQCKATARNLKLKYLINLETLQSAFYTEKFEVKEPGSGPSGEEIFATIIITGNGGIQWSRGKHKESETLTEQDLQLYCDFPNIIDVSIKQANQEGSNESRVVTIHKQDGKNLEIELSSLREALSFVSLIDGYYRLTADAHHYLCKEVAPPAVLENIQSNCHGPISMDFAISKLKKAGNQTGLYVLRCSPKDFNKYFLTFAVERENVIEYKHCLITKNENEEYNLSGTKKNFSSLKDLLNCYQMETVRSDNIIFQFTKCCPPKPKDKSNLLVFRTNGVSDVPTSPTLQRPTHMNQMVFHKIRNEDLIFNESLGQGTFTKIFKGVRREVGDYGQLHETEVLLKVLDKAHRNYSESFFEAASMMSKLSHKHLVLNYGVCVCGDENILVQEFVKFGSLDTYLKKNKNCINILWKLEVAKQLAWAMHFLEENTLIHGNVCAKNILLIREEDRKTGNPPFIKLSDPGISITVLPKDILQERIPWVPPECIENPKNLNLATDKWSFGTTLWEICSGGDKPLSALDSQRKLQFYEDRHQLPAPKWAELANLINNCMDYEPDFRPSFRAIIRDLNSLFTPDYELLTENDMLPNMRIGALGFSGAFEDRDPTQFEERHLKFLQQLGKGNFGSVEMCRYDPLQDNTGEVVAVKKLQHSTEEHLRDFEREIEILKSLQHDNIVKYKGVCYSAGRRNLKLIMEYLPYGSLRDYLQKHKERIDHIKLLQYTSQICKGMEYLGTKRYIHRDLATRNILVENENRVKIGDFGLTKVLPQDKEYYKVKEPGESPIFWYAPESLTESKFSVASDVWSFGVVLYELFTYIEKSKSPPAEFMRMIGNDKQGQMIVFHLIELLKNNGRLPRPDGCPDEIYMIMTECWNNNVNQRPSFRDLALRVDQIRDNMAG
Sequence of JAK2/JAK2 homdimeric complex (P32927 17-897 partner): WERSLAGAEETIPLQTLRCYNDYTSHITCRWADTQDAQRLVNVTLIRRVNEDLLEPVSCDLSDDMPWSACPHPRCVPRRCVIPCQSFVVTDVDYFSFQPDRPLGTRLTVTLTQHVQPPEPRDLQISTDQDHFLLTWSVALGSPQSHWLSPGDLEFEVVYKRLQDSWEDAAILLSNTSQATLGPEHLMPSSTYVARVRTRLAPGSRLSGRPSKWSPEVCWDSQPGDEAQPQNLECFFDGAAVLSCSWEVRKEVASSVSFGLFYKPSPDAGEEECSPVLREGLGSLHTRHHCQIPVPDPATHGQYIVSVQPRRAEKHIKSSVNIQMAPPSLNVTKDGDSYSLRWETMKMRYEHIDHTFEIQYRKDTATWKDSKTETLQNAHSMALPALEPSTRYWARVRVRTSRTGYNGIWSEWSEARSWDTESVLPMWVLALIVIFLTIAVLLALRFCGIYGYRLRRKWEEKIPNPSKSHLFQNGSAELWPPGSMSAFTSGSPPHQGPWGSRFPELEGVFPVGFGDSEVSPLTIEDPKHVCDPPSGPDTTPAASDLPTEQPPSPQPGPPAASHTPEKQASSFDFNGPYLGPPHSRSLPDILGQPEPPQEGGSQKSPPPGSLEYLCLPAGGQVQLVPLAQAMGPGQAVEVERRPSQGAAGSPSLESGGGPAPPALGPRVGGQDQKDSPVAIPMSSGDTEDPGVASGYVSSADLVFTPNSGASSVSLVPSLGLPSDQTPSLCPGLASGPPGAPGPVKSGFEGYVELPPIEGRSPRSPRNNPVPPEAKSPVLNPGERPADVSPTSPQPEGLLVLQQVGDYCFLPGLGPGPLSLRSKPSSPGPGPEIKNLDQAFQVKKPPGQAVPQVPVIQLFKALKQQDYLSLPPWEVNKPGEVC

Sequence of human TYK2 (JH2domain-pseudokinase) (P29597 556-888): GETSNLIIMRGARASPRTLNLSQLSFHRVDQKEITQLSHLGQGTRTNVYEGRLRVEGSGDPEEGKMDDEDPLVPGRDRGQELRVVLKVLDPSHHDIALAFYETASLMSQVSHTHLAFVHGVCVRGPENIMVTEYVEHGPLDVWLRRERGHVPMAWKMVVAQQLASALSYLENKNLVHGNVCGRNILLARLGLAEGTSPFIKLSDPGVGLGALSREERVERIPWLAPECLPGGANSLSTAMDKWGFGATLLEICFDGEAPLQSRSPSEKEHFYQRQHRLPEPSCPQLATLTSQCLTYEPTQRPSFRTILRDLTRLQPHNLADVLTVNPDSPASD
Sequence of JAK2 kinase domain (JH1) (O60674 849-1124): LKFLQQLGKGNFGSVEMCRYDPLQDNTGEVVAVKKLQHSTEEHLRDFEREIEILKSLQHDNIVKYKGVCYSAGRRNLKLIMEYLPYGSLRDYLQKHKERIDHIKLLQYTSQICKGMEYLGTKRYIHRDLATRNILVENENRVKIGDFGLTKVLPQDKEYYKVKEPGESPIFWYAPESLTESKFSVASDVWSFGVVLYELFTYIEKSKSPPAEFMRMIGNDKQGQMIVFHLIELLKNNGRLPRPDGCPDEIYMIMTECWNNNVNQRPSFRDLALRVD
Sequence of Tyk2 kinase domain (DH1) (P29597 897-1176): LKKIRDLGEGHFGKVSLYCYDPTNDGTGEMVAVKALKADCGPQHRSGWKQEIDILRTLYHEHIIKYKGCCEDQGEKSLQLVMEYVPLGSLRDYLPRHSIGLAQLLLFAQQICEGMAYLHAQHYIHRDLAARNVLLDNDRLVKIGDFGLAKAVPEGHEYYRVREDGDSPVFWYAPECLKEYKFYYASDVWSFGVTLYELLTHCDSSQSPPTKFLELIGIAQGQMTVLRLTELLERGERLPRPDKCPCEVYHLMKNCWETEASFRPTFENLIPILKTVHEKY
Sequence of Tyk2/JAK2 (heterodimeric complex) (P29597 whole entry, other chains not shown): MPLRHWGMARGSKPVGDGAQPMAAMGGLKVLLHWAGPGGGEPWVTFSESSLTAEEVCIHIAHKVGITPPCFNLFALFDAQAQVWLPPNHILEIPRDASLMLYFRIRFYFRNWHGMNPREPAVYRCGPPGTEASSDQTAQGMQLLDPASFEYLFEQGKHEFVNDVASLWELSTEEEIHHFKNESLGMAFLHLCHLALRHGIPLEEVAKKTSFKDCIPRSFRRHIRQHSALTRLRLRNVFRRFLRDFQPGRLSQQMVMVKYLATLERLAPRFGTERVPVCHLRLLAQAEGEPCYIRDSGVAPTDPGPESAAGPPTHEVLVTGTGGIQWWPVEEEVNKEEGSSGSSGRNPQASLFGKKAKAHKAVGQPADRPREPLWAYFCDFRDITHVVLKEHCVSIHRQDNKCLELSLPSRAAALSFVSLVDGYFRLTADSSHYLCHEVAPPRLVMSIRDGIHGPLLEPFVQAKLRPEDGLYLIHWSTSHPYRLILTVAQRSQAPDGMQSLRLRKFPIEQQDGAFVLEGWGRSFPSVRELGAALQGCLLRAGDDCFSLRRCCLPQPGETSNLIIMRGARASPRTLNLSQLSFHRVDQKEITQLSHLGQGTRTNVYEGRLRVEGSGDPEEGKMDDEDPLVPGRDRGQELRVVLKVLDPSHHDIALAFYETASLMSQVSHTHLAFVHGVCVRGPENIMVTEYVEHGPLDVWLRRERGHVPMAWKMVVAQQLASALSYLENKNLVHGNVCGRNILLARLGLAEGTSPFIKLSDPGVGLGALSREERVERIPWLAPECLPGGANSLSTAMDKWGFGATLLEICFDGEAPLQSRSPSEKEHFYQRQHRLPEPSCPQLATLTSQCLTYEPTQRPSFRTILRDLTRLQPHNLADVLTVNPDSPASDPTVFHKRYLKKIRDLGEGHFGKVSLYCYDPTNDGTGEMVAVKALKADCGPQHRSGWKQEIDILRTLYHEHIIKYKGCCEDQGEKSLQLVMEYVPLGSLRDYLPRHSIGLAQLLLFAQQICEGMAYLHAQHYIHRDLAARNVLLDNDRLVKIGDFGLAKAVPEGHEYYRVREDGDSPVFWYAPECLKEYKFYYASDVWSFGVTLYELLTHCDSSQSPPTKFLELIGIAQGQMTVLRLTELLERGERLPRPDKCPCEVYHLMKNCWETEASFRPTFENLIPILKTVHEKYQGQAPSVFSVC

In the case of CNc1cc(Nc2cccn(-c3nc(C)co3)c2=O)nc2c(C(=O)N[C@@H]3CC[C@H]3O)cnn12 (stereo in doubt) [I-658, N-((1R,2R)-2-hydroxycyclobutyl)-7-(methylamino)-5-((1-(4-methyloxazol-2-yl)-2-oxo-1,2-dihydropyridin-3-yl)amino)pyrazolo[1,5-a]pyrimidine-3-carboxamide], the Kd [1] is reported as < 0.2 nM, the inhibition at 10 µM (Tyk2 kinase domain (DH1); compound at 10 μM, ATP 10 μM) is reported as < 50% and the inhibition at 10 µM (JAK2 kinase domain (JH1); compound at 10 μM, ATP 10 μM) is reported as < 50%. For the same compound, the IC50 [2] was < 100 nM and the IC50 [3] was > 50000 nM.

For CNc1cc(Nc2cccn(-c3cc(C)on3)c2=O)nc2c(C(=O)N[C@H]3C[C@H]3F)cnn12 [I-161], the Kd [1] was < 0.2 nM, the inhibition at 10 µM (Tyk2 kinase domain (DH1); compound at 10 μM, ATP 10 μM) was < 50% and the inhibition at 10 µM (JAK2 kinase domain (JH1); compound at 10 μM, ATP 10 μM) was < 50%. For the same compound, the IC50 [2] was < 100 nM and the IC50 [3] was > 12500 nM.

CNc1cc(Nc2cccc3ocnc23)nc2c(C(=O)N[C@@H]3CC[C@H]3O)cnn12 (racemic) [I-756, 5-(benzo[d]oxazol-4-ylamino)-N-(2-hydroxycyclobutyl)-7-(methylamino) pyrazolo[1,5-a]pyrimidine-3-carboxamide] was tested, and the Kd [1] was < 0.2 nM, the inhibition at 10 µM (Tyk2 kinase domain (DH1); compound at 10 μM, ATP 10 μM) was < 50% and the inhibition at 10 µM (JAK2 kinase domain (JH1); compound at 10 μM, ATP 10 μM) was < 50%. The IC50 [2] was 100 to 500 nM and the IC50 [3] was > 50000 nM.

With CNc1cc(-c2cn(C(C)C)c3ncccc23)nc2c(C(=O)N[C@@H]3COC[C@@H]3O)cnn12 [I-842, N-((3R,4R)-4-hydroxytetrahydrofuran-3-yl)-5-(1-isopropyl-1H-pyrrolo[2,3-b]pyridin-3-yl)-7-(methylamino)pyrazolo[1,5-a]pyrimidine-3-carboxamide] the Kd [1] was < 0.2 nM, the inhibition at 10 µM (Tyk2 kinase domain (DH1); 10 μM compound, 10 μM ATP) was < 50% and the inhibition at 10 µM (JAK2 kinase domain (JH1); 10 μM compound, 10 μM ATP) was < 50%. For the same compound, the IC50 [2] was < 100 nM and the IC50 [3] was > 50000 nM.

For CNC(=O)c1occc1Nc1cc(NC)n2ncc(C(=O)NC3CC3)c2n1 [I-887], the Kd [1] was < 0.2 nM, the inhibition at 10 µM (Tyk2 kinase domain (DH1); 10 μM compound, 10 μM ATP) was < 50% and the inhibition at 10 µM (JAK2 kinase domain (JH1); 10 μM compound, 10 μM ATP) was < 50%. The IC50 [2] was < 100 nM and the IC50 [3] was > 50000 nM.

With CNc1cc(-c2cn(C3CC3)c3ncccc23)nc2c(C(=O)N[C@@H]3C[C@@H]3F)cnn12 [I-961, 5-(1-cyclopropyl-1H-pyrrolo[2,3-b]pyridine-3-yl)-N-((1R,2S)-2-fluorocyclopropyl)-7-(methylamino)pyrazolo[1,5-a]pyrimidine-3-carboxamide] the Kd [1] was < 0.2 nM, the inhibition at 10 µM (Tyk2 kinase domain (DH1); 10 μM compound, 10 μM ATP) was < 50% and the inhibition at 10 µM (JAK2 kinase domain (JH1); 10 μM compound, 10 μM ATP) was < 50%. For the same compound, the IC50 [2] was < 100 nM and the IC50 [3] was > 50000 nM.

In the case of CNc1cc(Nc2cccc3ocnc23)nc2c(C(=O)NC3CC3)cnn12 [I-591], the Kd [1] is reported as < 0.2 nM, the inhibition at 10 µM (Tyk2 kinase domain (DH1); compound at 10 μM, ATP 10 μM) is reported as < 50% and the inhibition at 10 µM (JAK2 kinase domain (JH1); compound at 10 μM, ATP 10 μM) is reported as < 50%. The IC50 [2] was < 100 nM and the IC50 [3] was > 12500 nM.

For CNc1cc(Nc2cccn([C@H]3CC[C@](C)(OC)CC3)c2=O)nc2c(C(=O)N[C@@H]3CC[C@H]3OC)cnn12 [I-959], the Kd [1] was < 0.2 nM, the “Tyk2 JH1% Inhibition @ 10 μM” value (Tyk2 kinase domain (DH1); 10 μM compound, 10 μM ATP) was “A (percent inhibition at 10 μM lower than 50)” and the “JAK2 JH1% Inhibition @ 10 μM” value (JAK2 kinase domain (JH1); 10 μM compound, 10 μM ATP) was “A (percent inhibition at 10 μM lower than 50)”. For the same compound, the IC50 [2] was < 100 nM and the IC50 [3] was > 50000 nM.

With CNc1cc(Nc2cccn(-c3cnn(CC4CCOCC4)c3)c2=O)nc2c(C(=O)NC3CC3)cnn12 [I-406] the Kd [1] was < 0.2 nM, the inhibition at 10 µM (Tyk2 kinase domain (DH1); compound at 10 μM, ATP 10 μM) was < 50% and the inhibition at 10 µM (JAK2 kinase domain (JH1); compound at 10 μM, ATP 10 μM) was < 50%. For the same compound, the IC50 [2] was 100 to 500 nM and the IC50 [3] was > 12500 nM.

In the case of CNc1cc(-c2cn(C(C)C)c3ncccc23)nc2c(C(N)=O)cnn12 [I-222, 5-(1-isopropyl-1H-pyrrolo[2,3-b]pyridin-3-yl)-7-(methylamino)pyrazolo[1,5-a]pyrimidine-3-carboxamide], the Kd [1] is reported as 0.2 to 1 nM, the inhibition at 10 µM (Tyk2 kinase domain (DH1); compound at 10 μM, ATP 10 μM) is reported as < 50% and the inhibition at 10 µM (JAK2 kinase domain (JH1); compound at 10 μM, ATP 10 μM) is reported as < 50%. The IC50 [2] was < 100 nM and the IC50 [3] was > 2500 nM.

With CNc1cc(Nc2cccn([C@H]3CC[C@H](OC)CC3)c2=O)nc2c(C(=O)NC3CCC3)cnn12 [I-345] the Kd [1] was < 0.2 nM, the inhibition at 10 µM (Tyk2 kinase domain (DH1); compound at 10 μM, ATP 10 μM) was < 50% and the inhibition at 10 µM (JAK2 kinase domain (JH1); compound at 10 μM, ATP 10 μM) was < 50%. For the same compound, the IC50 [2] was < 100 nM and the IC50 [3] was > 50000 nM.

[2H]C([2H])([2H])Oc1ncccc1Nc1cc(NC)n2ncc(C(=O)N[C@H]3CC[C@@H]3O)c2n1 [I-373] was tested, and the Kd [1] was < 0.2 nM, the inhibition at 10 µM (Tyk2 kinase domain (DH1); compound at 10 μM, ATP 10 μM) was < 50% and the inhibition at 10 µM (JAK2 kinase domain (JH1); compound at 10 μM, ATP 10 μM) was < 50%. The IC50 [2] was < 100 nM and the IC50 [3] was > 50000 nM.
